{
  "source": "patent US20020037290A1",
  "about": "“Compositions comprising heat shock proteins or alpha(2) macroglobulin, antigenic molecules and saponins, and methods of use thereof” (priority 2000, published 2002)",
  "origin": "cited, not measured here",
  "molecules": {"B1": {"name": "gp96 derived from the UV6138: heat shock protein gp96(-peptide complex) preparation isolated from the UV-induced UV6138 mouse carcinoma (protein, UniProt P08113 22-802, looked up)", "Endoplasmin": "DDEVDVDGTVEEDLGKSREGSRTDDEVVQREEEAIQLDGLNASQIRELREKSEKFAFQAEVNRMMKLIINSLYKNKEIFLRELISNASDALDKIRLISLTDENALAGNEELTVKIKCDKEKNLLHVTDTGVGMTREELVKNLGTIAKSGTSEFLNKMTEAQEDGQSTSELIGQFGVGFYSAFLVADKVIVTSKHNNDTQHIWESDSNEFSVIADPRGNTLGRGTTITLVLKEEASDYLELDTIKNLVRKYSQFINFPIYVWSSKTETVEEPLEEDEAAKEEKEESDDEAAVEEEEEEKKPKTKKVEKTVWDWELMNDIKPIWQRPSKEVEEDEYKAFYKSFSKESDDPMAYIHFTAEGEVTFKSILFVPTSAPRGLFDEYGSKKSDYIKLYVRRVFITDDFHDMMPKYLNFVKGVVDSDDLPLNVSRETLQQHKLLKVIRKKLVRKTLDMIKKIADEKYNDTFWKEFGTNIKLGVIEDHSNRTRLAKLLRFQSSHHSTDITSLDQYVERMKEKQDKIYFMAGSSRKEAESSPFVERLLKKGYEVIYLTEPVDEYCIQALPEFDGKRFQNVAKEGVKFDESEKTKESREATEKEFEPLLNWMKDKALKDKIEKAVVSQRLTESPCALVASQYGWSGNMERIMKAQAYQTGKDISTNYYASQKKTFEINPRHPLIRDMLRRIKEDEDDKTVMDLAVVLFETATLRSGYLLPDTKAYGDRIERMLRLSLNIDPEAQVEEEPEEEPEDTSEDAEDSEQDEGEEMDAGTEEEEEETEKESTEKDEL", "modifications": "bound tumor peptides", "notes": "heat shock protein gp96(-peptide complex) preparation isolated from the UV-induced UV6138 mouse carcinoma"}, "B2": {"name": "gp96 derived from the UV6139: gp96-peptide complex derived from UV6139SJ carcinoma cells (protein, UniProt P08113 22-802, looked up)", "Endoplasmin": "B1 Endoplasmin", "modifications": "bound tumor peptides", "notes": "gp96-peptide complex derived from UV6139SJ carcinoma cells"}, "B3": {"name": "liver-derived gp96: gp96-peptide complex derived from normal liver (protein, UniProt P08113 22-802, looked up)", "Endoplasmin": "B1 Endoplasmin", "modifications": "bound peptides"}},
  "key": {"[1]": {"test_system": "bovine serum albumin and cytochrome b5", "settings": "Kensil et al., 1991, cited from earlier work; for level of antibody response induced: mice, antigens bovine serum albumin and cytochrome b5; for IgG2a response to cytochrome b5: saponin doses of 20 μg"}, "[2]": {"settings": "mouse, in vivo; cited from earlier work"}, "[3]": {"test_system": "murine antiidiotype antibody MELIMMUNE-1", "settings": "melanoma patients; Livingston et al., 1995; cited from earlier work"}, "[4]": {"test_system": "UV6138 carcinoma", "settings": "cited from earlier work"}, "[5]": {"test_system": "UV6139SJ carcinoma", "settings": "cited from earlier work"}, "[6]": {"test_system": "UV6139SJ carcinoma", "settings": "prior experiments, cited from earlier work; for tumor growth, monitored as the average of two perpendicular diameter measurements: U.S. Pat. No. 5,837,251, established UV6139SJ carcinoma"}, "[7]": {"settings": "previously shown, U.S. Pat. No. 5,837,251"}, "[8]": {"settings": "prior result of U.S. Pat. No. 5,837,251, resistant mice out of mice challenged"}},
  "data": [
    {"molecule": "QS-17", "values": [
      {"measurement": "level of antibody response induced", "setting": "[1]", "value": "comparable to other commonly used adjuvants"},
      {"measurement": "IgG2a response to cytochrome b5", "setting": "[1]", "value": "stimulate IgG2a response"}
    ]},
    {"molecule": "QS-18", "values": [
      {"measurement": "level of antibody response induced", "setting": "[1]", "value": "comparable to other commonly used adjuvants"},
      {"measurement": "IgG2a response to cytochrome b5", "setting": "[1]", "value": "stimulate IgG2a response"}
    ]},
    {"molecule": "QS-21", "values": [
      {"measurement": "toxicity in mice", "setting": "[2]", "value": "least toxic"},
      {"measurement": "serological response to MELIMMUNE-1", "setting": "[3]", "value": "significantly increased"},
      {"measurement": "level of antibody response induced", "setting": "[1]", "value": "comparable to other commonly used adjuvants"},
      {"measurement": "IgG2a response to cytochrome b5", "setting": "[1]", "value": "stimulate IgG2a response"}
    ]},
    {"molecule": "B1", "values": [
      {"measurement": "immunity to the UV6138 challenge", "setting": "[4]; [7]", "value": "rendered the mice immune"},
      {"measurement": "resistance conferred against the UV6138 cells", "setting": "[4]; [8]", "value": "6 out of 7"}
    ]},
    {"molecule": "B2", "values": [
      {"measurement": "immunity to the UV6139SJ challenge", "setting": "[5]; [7]", "value": "conferred resistance"},
      {"measurement": "resistance conferred against the UV6139SJ cells", "setting": "[5]; [8]", "value": "2 out of 4"},
      {"measurement": "tumor growth, monitored as the average of two perpendicular diameter measurements", "setting": "[6]", "value": "significantly retarded"},
      {"measurement": "kinetics of tumor growth in treated and control mice", "setting": "[6]; effect appears to diminish after treatment is terminated", "value": "immediate inhibitory effect on tumor growth"}
    ]},
    {"molecule": "B3", "values": [
      {"measurement": "tumor growth, monitored as the average of two perpendicular diameter measurements", "setting": "[6]", "value": "not"}
    ]}
  ]
}
